From ChEMBL document CHEMBL1201862, “PubChem BioAssay data set” (2004)
The source made the active and inactive calls.

Experiments:
[1] = test system: CHO; assay: CHO cell viability loss, potency – luminescence, cytotoxicity control for TLR9-MyD88 binding inhibitor project, dose response (AID 588339); format: functional, cell-based, hamster; details: Cricetulus griseus;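 further: CHO cells stably coexpressing TLR9 and MyD88 fusions from primary screen; compound exposure lasted 48 hours before viability readout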
[2] = biological target: Beta Lactamase (Pseudomonas aeruginosa, UniProt Q932Y6); assay: BLA reporter interference, concentration series – BLA reporter cells, FRET fluorescence, artefact control for TLR9-MyD88 binding inhibitor project, dose response (AID 588341); format: cell-based;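 further: cell based assay in CHO-K1 cells stably expressing beta-lactamase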
Chain of Beta Lactamase (Q932Y6 whole entry): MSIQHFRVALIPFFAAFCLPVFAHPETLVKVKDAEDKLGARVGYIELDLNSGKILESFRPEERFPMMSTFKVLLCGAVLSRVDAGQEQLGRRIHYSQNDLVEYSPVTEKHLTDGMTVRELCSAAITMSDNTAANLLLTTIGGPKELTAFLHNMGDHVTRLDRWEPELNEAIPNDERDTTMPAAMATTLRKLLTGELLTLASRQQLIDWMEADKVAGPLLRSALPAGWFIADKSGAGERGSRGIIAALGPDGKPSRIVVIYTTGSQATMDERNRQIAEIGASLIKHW

[3] = test system: Vero; assay: Vero E6 cell cytotoxicity, dose response, cytotoxicity control (AID 540298); format: functional; details: Chlorocebus sabaeus
[4] = test system: MDCK; assay: antiviral activity against H1N1 influenza, dose response, cell-based, strain KY136 (AID 540257); format: functional; details: Canis lupus familiaris
[5] = biological target: Heat shock protein HSP 90-alpha (Homo sapiens, UniProt P07900); format: functional, organism-based
[6] = biological target: Nonstructural protein 1 (Influenza A virus, UniProt Q194T2); format: functional, Influenza A virus (A/California/07/2009(H1N1))
Chain of Nonstructural protein 1 (Q194T2 whole entry): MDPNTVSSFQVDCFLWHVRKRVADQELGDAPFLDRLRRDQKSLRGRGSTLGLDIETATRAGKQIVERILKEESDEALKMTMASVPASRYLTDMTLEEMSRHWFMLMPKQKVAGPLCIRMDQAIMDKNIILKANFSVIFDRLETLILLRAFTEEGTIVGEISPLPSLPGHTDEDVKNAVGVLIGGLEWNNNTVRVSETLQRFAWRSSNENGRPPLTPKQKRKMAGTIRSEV

[7] = biological target: Mu-type opioid receptor (Homo sapiens, UniProt P35372); assay: (§1) Counterscreen for agonists of heterodimerization of the mu 1 (OPRM1) and delta 1 (OPRD1) opioid receptors: Luminescence-based cell-based high throughput dose response assay to identify agonists of OPRM1 homodimerization.; format: functional
Chain of Mu-type opioid receptor (P35372 whole entry): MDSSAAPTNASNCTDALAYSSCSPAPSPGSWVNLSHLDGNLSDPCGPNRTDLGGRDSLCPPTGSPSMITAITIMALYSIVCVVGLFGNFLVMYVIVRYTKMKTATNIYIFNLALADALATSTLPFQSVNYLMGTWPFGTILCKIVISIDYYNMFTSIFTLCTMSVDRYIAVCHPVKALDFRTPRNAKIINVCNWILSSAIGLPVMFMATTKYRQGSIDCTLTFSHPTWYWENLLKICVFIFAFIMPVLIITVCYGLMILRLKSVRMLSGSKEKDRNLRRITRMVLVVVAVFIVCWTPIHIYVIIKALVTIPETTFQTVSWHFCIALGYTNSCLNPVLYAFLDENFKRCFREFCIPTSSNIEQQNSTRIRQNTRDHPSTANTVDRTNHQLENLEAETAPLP

[8] = biological target: Delta-type opioid receptor (Homo sapiens, UniProt P41143); assay: as §1, with “of OPRD1” for “of OPRM1”, “homodimerization. [Related pubchem assays (depositor defined):AID504326, AID504355, AID504692, AID504904, AID504905]” for “homodimerization.”; format: functional
Chain of Delta-type opioid receptor (P41143 whole entry): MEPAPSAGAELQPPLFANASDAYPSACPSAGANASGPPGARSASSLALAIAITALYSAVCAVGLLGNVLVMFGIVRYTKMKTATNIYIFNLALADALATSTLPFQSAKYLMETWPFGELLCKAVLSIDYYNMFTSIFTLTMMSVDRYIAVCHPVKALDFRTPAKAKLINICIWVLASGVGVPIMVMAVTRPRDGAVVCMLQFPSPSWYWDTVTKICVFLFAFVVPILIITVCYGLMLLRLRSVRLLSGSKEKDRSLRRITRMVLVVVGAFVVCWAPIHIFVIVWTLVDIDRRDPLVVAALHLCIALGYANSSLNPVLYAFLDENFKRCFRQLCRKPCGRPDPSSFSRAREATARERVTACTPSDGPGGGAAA

[9] = biological target: 5-hydroxytryptamine receptor 5A (Homo sapiens, UniProt P47898); assay: Counterscreen for agonists of OPRM1-OPRD1 heterodimerization: luminescence-based cell-based high throughput dose response assay to identify agonists of 5-hydroxytryptamine (serotonin) 5A receptor (HTR5A). [Related pubchem assays (depositor defined):AID504326, AID504355, AID504692, AID504904, AID504905]; format: functional
Chain of 5-hydroxytryptamine receptor 5A (P47898 whole entry): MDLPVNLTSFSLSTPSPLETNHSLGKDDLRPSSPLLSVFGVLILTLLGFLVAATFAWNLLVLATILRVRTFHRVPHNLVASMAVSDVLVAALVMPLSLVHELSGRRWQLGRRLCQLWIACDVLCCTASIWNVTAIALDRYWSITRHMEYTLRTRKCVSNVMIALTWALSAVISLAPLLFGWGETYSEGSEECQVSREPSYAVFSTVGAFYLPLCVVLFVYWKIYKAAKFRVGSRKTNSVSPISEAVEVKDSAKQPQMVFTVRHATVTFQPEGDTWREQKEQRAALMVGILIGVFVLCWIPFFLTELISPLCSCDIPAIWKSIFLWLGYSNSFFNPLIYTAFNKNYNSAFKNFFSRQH

[10] = test system: MDCK; assay: MDCK cell cytotoxicity, dose response, cytotoxicity control (AID 540296); format: functional; details: Canis lupus familiaris
[11] = biological target: T1, Hexokinase HKDC1 (Homo sapiens, UniProt Q2TB90); assay: SAR analysis of small molecule inhibitors of hexokinase domain containing I (HKDC1). [Related pubchem assays (depositor defined):AID493160, AID493190]; format: functional
T1 sequence (Q2TB90 whole entry): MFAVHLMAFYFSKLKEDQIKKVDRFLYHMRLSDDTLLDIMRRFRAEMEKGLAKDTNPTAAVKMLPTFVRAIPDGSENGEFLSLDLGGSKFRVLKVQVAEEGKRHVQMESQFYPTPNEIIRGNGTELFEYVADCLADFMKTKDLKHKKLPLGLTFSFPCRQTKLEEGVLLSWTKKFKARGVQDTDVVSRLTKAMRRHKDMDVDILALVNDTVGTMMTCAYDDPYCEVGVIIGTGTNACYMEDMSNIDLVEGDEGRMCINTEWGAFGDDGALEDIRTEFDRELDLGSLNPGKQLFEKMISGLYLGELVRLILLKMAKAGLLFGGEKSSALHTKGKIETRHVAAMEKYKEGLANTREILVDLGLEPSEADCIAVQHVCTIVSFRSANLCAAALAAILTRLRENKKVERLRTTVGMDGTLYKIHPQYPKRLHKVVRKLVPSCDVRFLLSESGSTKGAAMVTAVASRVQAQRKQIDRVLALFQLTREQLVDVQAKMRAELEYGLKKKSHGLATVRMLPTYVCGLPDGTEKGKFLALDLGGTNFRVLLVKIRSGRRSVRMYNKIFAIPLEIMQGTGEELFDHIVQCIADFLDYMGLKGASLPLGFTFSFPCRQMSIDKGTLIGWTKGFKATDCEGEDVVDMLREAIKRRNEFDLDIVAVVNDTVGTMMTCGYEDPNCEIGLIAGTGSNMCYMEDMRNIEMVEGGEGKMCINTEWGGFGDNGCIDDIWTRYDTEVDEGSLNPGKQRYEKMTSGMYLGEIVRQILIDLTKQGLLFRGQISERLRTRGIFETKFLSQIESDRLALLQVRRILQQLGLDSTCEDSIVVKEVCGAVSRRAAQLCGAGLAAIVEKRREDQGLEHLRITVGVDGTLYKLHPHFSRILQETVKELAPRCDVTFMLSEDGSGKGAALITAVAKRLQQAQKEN

[12] = biological target: T2, Hexokinase-1 (Homo sapiens, UniProt P19367); assay: SAR analysis of small molecule inhibitors of hexokinase domain containing I (HKDC1) in the hexokinase 1 selectivity assay. [Related pubchem assays (depositor defined):AID493160, AID493190]; format: functional
T2 sequence (P19367 whole entry): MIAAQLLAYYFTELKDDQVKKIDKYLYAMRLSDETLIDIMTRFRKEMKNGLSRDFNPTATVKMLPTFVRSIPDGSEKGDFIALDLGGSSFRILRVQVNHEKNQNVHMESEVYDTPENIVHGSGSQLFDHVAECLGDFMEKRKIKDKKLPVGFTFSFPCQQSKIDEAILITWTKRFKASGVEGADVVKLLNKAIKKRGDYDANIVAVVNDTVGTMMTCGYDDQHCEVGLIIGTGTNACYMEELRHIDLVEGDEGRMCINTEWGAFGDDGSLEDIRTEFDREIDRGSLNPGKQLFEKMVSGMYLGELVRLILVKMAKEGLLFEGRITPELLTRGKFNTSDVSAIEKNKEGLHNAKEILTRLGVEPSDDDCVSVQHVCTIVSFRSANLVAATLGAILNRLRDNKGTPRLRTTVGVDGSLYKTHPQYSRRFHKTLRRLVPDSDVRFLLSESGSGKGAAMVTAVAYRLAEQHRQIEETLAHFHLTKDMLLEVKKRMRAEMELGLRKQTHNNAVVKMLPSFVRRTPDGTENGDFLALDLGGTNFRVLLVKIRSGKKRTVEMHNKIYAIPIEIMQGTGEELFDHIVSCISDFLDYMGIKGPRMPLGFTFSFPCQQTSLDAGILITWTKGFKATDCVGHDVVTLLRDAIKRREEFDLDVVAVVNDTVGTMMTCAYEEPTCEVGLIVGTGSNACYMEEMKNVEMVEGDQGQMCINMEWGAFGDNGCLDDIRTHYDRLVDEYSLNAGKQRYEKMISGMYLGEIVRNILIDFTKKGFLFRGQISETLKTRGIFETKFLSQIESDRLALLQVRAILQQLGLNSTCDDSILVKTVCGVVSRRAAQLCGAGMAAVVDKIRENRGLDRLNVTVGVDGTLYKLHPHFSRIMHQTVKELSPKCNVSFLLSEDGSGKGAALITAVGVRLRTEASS

[13] = biological target: Voltage-gated inwardly rectifying potassium channel KCNH2 (Homo sapiens, UniProt Q12809); details: Potency;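 further: confirmatory quantitative high-throughput screen measuring inhibition of hERG channel activity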
Chain of Voltage-gated inwardly rectifying potassium channel KCNH2 (Q12809 whole entry): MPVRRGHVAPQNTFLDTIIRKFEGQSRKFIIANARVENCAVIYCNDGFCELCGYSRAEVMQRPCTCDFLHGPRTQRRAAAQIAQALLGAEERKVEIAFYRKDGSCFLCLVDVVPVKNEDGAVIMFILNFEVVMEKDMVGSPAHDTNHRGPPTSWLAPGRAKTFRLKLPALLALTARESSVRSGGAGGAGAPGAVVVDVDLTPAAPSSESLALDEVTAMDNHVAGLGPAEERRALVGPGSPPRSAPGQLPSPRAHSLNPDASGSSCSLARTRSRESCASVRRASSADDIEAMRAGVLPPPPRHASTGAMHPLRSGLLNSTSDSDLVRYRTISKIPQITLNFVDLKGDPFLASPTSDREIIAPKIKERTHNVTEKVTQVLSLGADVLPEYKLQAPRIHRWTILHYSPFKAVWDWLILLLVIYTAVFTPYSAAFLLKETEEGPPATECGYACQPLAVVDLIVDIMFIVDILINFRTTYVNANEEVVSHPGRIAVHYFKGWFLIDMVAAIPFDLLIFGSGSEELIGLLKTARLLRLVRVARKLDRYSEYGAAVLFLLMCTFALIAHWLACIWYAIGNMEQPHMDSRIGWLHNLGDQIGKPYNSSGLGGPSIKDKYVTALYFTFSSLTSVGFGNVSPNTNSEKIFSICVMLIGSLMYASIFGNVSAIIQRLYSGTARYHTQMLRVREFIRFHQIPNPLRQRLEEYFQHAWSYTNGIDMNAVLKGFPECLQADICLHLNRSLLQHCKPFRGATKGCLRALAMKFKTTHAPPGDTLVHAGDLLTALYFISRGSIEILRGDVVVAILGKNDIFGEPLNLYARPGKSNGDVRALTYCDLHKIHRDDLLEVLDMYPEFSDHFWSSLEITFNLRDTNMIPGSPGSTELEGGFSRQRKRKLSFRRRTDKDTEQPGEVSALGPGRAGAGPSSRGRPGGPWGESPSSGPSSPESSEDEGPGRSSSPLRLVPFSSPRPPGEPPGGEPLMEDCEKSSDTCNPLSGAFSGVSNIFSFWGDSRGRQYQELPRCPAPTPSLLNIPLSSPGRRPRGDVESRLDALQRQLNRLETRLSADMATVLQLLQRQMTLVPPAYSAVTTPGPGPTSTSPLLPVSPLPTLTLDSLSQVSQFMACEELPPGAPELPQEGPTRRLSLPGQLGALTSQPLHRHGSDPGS

[14] = biological target: T3, Cytochrome P450 1A2 (Homo sapiens, UniProt P05177);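 further: PubChem cytochrome P450 panel assay, CYP1A2 panel member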
T3 sequence (P05177 whole entry): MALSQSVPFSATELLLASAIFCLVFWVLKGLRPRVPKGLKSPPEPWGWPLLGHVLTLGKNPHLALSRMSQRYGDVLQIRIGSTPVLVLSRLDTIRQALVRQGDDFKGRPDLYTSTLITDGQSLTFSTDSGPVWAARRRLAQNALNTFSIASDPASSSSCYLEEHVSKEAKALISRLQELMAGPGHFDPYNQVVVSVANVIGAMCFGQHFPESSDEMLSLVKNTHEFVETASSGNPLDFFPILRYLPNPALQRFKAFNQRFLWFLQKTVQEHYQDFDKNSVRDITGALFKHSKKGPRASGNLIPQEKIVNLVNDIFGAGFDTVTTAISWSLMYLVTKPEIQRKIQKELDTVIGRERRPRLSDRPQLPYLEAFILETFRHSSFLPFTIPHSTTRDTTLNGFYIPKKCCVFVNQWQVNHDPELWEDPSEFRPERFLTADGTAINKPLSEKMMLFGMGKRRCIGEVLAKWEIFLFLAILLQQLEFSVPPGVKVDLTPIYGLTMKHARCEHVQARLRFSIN

Nc1ccc2c(c1)Cc1cc([N+](=O)[O-])ccc1-2
IC50 [1]: > 49.8 µM (inactive) | IC50 [2]: 6.37 µM (active)

O=C(C=P(c1ccccc1)(c1ccccc1)c1ccccc1)c1ccccc1-c1ccccc1C(=O)C=P(c1ccccc1)(c1ccccc1)c1ccccc1
CC50 [3]: 3.43 µM (active) | IC50 [4]: 2.54 µM (active) | AC50 [5]: 8.19 µM (active) | IC50 [6]: 58.5 µM (active) | EC50 [7]: > 92.5 µM (inactive) | EC50 [8]: > 92.5 µM (inactive) | EC50 [9]: > 92.5 µM (inactive) | CC50 [10]: 6.63 µM (active)

O=C(O)CCSc1cc(NS(=O)(=O)c2ccccc2)c2ccccc2c1O
IC50 [11]: 7.53 µM (active) | IC50 [12]: 62.4 µM (inactive)

CC(=O)N[C@@H](Cc1c[nH]c2ccccc12)C(=O)OCc1cc(C(F)(F)F)cc(C(F)(F)F)c1 [L-732138]
AC50 [13]: 12.6 µM (inconclusive) | AC50 [14]: 31.6 µM (inconclusive)
